From ChEMBL document CHEMBL4418276, “Boldine derivatives for promoting bone growth” (2014)
pIC50: −log10 of the molar value.

Target: T1, Sclerostin (Homo sapiens, UniProt Q9BQB4)
T1 sequence (Q9BQB4 whole entry): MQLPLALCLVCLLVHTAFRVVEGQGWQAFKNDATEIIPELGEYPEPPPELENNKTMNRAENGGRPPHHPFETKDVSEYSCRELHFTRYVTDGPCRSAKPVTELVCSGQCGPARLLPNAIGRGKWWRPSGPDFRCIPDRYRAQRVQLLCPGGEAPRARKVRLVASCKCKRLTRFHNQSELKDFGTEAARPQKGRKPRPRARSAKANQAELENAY
Test: Inhibition of sclerostin in human embryonic cells assessed as restoration of Wnt signaling by luciferase reporter gene assay
Assay type: cell-based

COc1cc2c(cc1OC)-c1c(OC)c(OC)c(C=O)c3c1[C@H](C2)N(C)CC3
pIC50: 5.82
